Source: patent US20250051327A1, “MALT-1 MODULATORS” (EXSCIENTIA AI LIMITED, priority 2020, published 2025)
Where two headings read alike, the source gives them in different places.

Legend:
[1] = tested on: IL-2 secretion by human effector memory T cells (TEM); assay: Effector memory T cells IL-2 release assay; format: cell-based; details: human CD4+ effector memory T cells, CD3/CD28 bead stimulation, 24 h, read-out: CD4TC IL2 IC50
Procedure, shortened: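 Human CD4+ effector memory T cells from healthy-donor buffy coats were stimulated with anti-CD3/CD28 Dynabeads and exposed to 10 semi-log compound doses (0.1% DMSO) for 24 h at 37 °C. Supernatant IL-2 was measured by HTRF, and IC50 came from a 4-parameter logistic fit to maximal IL-2. Viability was checked by flow cytometry.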

[2] = biological target: Recombinant human MALT-1 (amino acids 340-824) (Homo sapiens (Human), UniProt Q9UDY8); assay: MALT-1 inhibition assay (fluorogenic substrate Ac-LRSR-Rh110-DP); format: biochemical; details: recombinant human MALT-1, substrate Ac-LRSR-Rh110-DP
Sequence of Recombinant human MALT-1 (amino acids 340-824) (Q9UDY8 340-824): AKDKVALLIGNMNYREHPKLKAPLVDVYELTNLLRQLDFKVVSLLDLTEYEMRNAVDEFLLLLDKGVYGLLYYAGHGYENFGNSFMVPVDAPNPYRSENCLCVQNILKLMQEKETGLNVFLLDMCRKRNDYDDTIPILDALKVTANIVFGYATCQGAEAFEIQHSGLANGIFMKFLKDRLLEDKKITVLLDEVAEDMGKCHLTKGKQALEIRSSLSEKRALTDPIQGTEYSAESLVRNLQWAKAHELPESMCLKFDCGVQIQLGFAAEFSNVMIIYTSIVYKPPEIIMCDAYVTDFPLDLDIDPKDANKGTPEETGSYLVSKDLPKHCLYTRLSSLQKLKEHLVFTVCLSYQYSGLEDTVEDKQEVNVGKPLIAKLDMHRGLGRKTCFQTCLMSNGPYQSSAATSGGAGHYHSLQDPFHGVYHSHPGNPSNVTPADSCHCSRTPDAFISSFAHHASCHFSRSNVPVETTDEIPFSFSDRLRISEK
Procedure, shortened: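 Reactions were started with fluorogenic substrate Ac-LRSR-Rh110-DP (10 μM final) against 3 nM enzyme and kept dark at 25° C for 60 minutes. IC50 values came from 4-parameter logistic fits of percent inhibition calculated from relative fluorescence units.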

| Structure (SMILES) | IC50 ([1]; T-cell) [nM] | IC50 [2] [nM] | IC50 [1] [nM] |
| --- | --- | --- | --- |
| CN(C(=O)[C@H]1CC[C@H](C(=O)O)CC1)[C@@H](c1ccc(N2CCCc3c2cnc2cc(Cl)nn32)cc1)C(F)(F)F [CPD0072442, (1r,4r)-4-{[(1S)-1-(4-{4-chloro-2,3,7,10-tetraazatricyclo[7.4.0.0^2,6]trideca-1(9),3,5,7-tetraen-10-yl}phenyl)-2,2,2-trifluoroethyl](methyl)carbamoyl}cyclohexane-1-carboxylic acid] | 300 | 43 | – |
| CN(C(=O)C1CC(C(=O)O)C1)[C@@H](c1ccc(N2CCCc3c2cnc2cc(Cl)nn32)cc1)C(F)(F)F (stereo partly drawn) [CPD0072461] | 732 | 63 | – |
| COC(C)c1c(Nc2ccc([C@H](N(C)C(=O)C3CCS(=O)(=O)CC3)C(F)(F)F)cc2)cnn2cc(Cl)nc12 (stereo partly drawn) [CPD0072526, N-[(1S)-1-[4-[[2-chloro-8-(1-methoxyethyl)imidazo[1,2-b]pyridazin-7-yl]amino]phenyl]-2,2,2-trifluoro-ethyl]-N-methyl-1,1-dioxo-thiane-4-carboxamide] | 71 | 47 | – |
| CN(C(=O)CC1CS(=O)(=O)C1)[C@@H](c1ccc(N2CCCc3c2cnc2cc(Cl)nn32)cc1)C(F)(F)F [CPD0072798, N-[(1S)-1-(4-{4-chloro-2,3,7,10-tetraazatricyclo[7.4.0.0^2,6]trideca-1(9),3,5,7-tetraen-10-yl}phenyl)-2,2,2-trifluoroethyl]-2-(1,1-dioxo-1λ^6-thietan-3-yl)-N-methylacetamide] | 200 | 142 | – |
| CN(C(=O)C1C2CS(=O)(=O)CC21)[C@@H](c1ccc(N2CCCc3c2cnc2cc(Cl)nn32)cc1)C(F)(F)F (stereo partly drawn) [CPD0072801, N-[(1S)-1-(4-{4-chloro-2,3,7,10-tetraazatricyclo[7.4.0.0^2,6]trideca-1(9),3,5,7-tetraen-10-yl}phenyl)-2,2,2-trifluoroethyl]-N-methyl-3,3-dioxo-3λ^6-thiabicyclo[3.1.0]hexane-6-carboxamide] | 147 | 95 | – |
| CN(C(=O)N1CCS(=O)(=O)CC1)[C@@H](c1ccc(N2CCCc3c2cnc2cc(Cl)nn32)cc1)C(F)(F)F [CPD0072804, N-[(1S)-1-(4-{4-chloro-2,3,7,10-tetraazatricyclo[7.4.0.0^2,6]trideca-1(9),3,5,7-tetraen-10-yl}phenyl)-2,2,2-trifluoroethyl]-N-methyl-1,1-dioxo-1λ^e-thiomorpholine-4-carboxamide] | 307 | 159 | – |
| CC1CCc2c(cnc3cc(Cl)nn23)N1c1ccc([C@H](N(C)C(=O)C2CCS(=O)(=O)CC2)C(F)(F)F)cc1 (stereo partly drawn) [CPD0072805, N-[(1S)-1-{4-[(11rel-S)-4-chloro-11-methyl-2,3,7,10-tetraazatricyclo[7.4.0.0^2,6]trideca-1(9),3,5,7-tetraen-10-yl]phenyl}-2,2,2-trifluoroethyl]-N-methyl-1,1-dioxo-1λ^6-thiane-4-carboxamide] | – | 172 | 1020 |
| CC1CCc2c(cnc3cc(Cl)nn23)N1c1ccc([C@H](N(C)C(=O)C2CCS(=O)(=O)CC2)C(F)(F)F)cc1 (stereo partly drawn) [CPD0072806, N-[(1S)-1-{4-[(11rel-R)-4-chloro-11-methyl-2,3,7,10-tetraazatricyclo[7.4.0.0^2,6]trideca-1(9),3,5,7-tetraen-10-yl]phenyl}-2,2,2-trifluoroethyl]-N-methyl-1,1-dioxo-1λ^6-thiane-4-carboxamide] | – | 69 | 206 |
| CN(C(=O)[C@H]1C[C@@H](C(=O)O)C1)[C@@H](c1ccc(N2CCCc3c2cnc2cc(Cl)nn32)cc1)C(F)(F)F [CPD0072934, (cis)-3-{[(1S)-1-(4-{4-chloro-2,3,7,10-tetraazatricyclo[7.4.0.0^2,6]trideca-1(9),3,5,7-tetraen-10-yl}phenyl)-2,2,2-trifluoroethyl](methyl)carbamoyl}cyclobutane-1-carboxylic acid] | 422 | 72 | – |
| CN(C(=O)C1CC2(C1)CS(=O)(=O)C2)[C@@H](c1ccc(N2CCCc3c2cnc2cc(Cl)nn32)cc1)C(F)(F)F [CPD0072937, N-[(1S)-1-(4-{4-chloro-2,3,7,10-tetraazatricyclo[7.4.0.0^2,6]trideca-1(9),3,5,7-tetraen-10-yl}phenyl)-2,2,2-trifluoroethyl]-N-methyl-2,2-dioxo-2λ^6-thiaspiro[3.3]heptane-6-carboxamide] | 93 | 75 | – |
| CN(C(=O)[C@@H]1C[C@H]2CC[C@@H](C1)S2(=O)=O)[C@@H](c1ccc(N2CCCc3c2cnc2cc(Cl)nn32)cc1)C(F)(F)F [CPD0072938, (1R,3R,5S)-N-[(1S)-1-(4-{4-chloro-2,3,7,10-tetraazatricyclo[7.4.0.0^2,6]trideca-1(9),3,5,7-tetraen-10-yl}phenyl)-2,2,2-trifluoroethyl]-N-methyl-8,8-dioxo-8λ^6-thiabicyclo[3.2.1]octane-3-carboxamide] | 92 | 90 | – |
| CN(C(=O)C1CCS(=O)(=O)CC1)[C@@H](c1ccc(N2CCCc3c2cnc2cc(Cl)nn32)cn1)C(F)(F)F [CPD0073056, N-[(1S)-1-[5-(4-chloro-2,3,7,10-tetrazatricyclo[7.4.0.0^2,6]trideca-1(9),3,5,7-tetraen-10-yl)-2-pyridyl]-2,2,2-trifluoro-ethyl]-N-methyl-1,1-dioxo-thiane-4-carboxamide] | 780 | 197 | – |

Second part, led by results:

| IC50 ([1]; T-cell) [nM] | IC50 [2] [nM] | Structure (SMILES) | IC50 [1] [nM] |
| --- | --- | --- | --- |
| 940 | 432 | COc1ccc2ncc3c(c2n1)C(O)CCN3c1ccc([C@H](N(C)C(=O)C2CCS(=O)(=O)CC2)C(F)(F)F)cc1 (stereo partly drawn) [CPD0072449, N-methyl-1,1-dioxo-N-[(1S)-2,2,2-trifluoro-1-[4-(10-hydroxy-2-methoxy-9,10-dihydro-8H-pyrido[2,3-f][1,7]naphthyridin-7-yl)phenyl]ethyl]thiane-4-carboxamide] | – |
| 548 | 217 | COc1ccc2ncc3c(c2n1)CCCN3c1ccc([C@H](N(C)C(=O)C2CCS(=O)(=O)CC2)C(F)(F)F)cc1 [CPD0072532, N-methyl-1,1-dioxo-N-[(1S)-2,2,2-trifluoro-1-[4-(2-methoxy-9,10-dihydro-8H-pyrido[2,3-f][1,7]naphthyridin-7-yl)phenyl]ethyl]thiane-4-carboxamide] | – |
| 27 | 27 | CN(C(=O)[C@H]1CC[S@@](=N)(=O)CC1)[C@@H](c1ccc(N2CCC3(CC3)c3c2cnc2cc(Cl)nn32)cc1)C(F)(F)F [CPD0072772, (1rel-s,4rel-s)-N-[(1S)-1-(4-{4′-chloro-2′,3′,7′, 10′-tetraazaspiro[cyclopropane-1,13′-tricyclo[7.4.0.0^2,6]tridecane]-1′(9′),3′,5′,7′-tetraen-10′-yl}phenyl)-2,2,2-trifluoroethyl]-1-imino-N-methyl-1-oxo-1λ^6-thiane-4-carboxamide] | – |
| 143 | 94 | COCC1CCN(c2ccc([C@H](N(C)C(=O)C3CCS(=O)(=O)CC3)C(F)(F)F)cc2)c2cnc3cc(Cl)nn3c21 (stereo partly drawn) [CPD0072775] | – |
| 1890 | 322 | CN(C(=O)C1CCS(=O)(=O)CC1)[C@@H](c1ccc(N2CCCc3c2cnc2cc(Cl)nn32)cc1)C(C)(F)F [CPD0072803, N-[(1S)-1-(4-{4-chloro-2,3,7,10-tetraazatricyclo[7.4.0.0^2,6]trideca-1(9),3,5,7-tetraen-10-yl}phenyl)-2,2-difluoropropyl]-N-methyl-1,1-dioxo-1λ^6-thiane-4-carboxamide] | – |
| 237 | 127 | Cc1cc(N2CCCc3c2cnc2cc(Cl)nn32)ccc1[C@H](N(C)C(=O)C1CCS(=O)(=O)CC1)C(F)(F)F [CPD0072808, N-[(1S)-1-(4-{4-chloro-2,3,7,10-tetraazatricyclo[7.4.0.0^2,6]trideca-1(9),3,5,7-tetraen-10-yl}-2-methylphenyl)-2,2,2-trifluoroethyl]-N-methyl-1,1-dioxo-1λ^6-thiane-4-carboxamide] | – |
| 79 | 31 | CC1CCN(c2ccc([C@H](N(C)C(=O)[C@H]3CC[S@@](=N)(=O)CC3)C(F)(F)F)cc2)c2cnc3cc(Cl)nn3c21 (stereo partly drawn) [CPD0072812] | – |
| 61 | 27 | CC1CCN(c2ccc([C@H](N(C)C(=O)[C@H]3CC[S@](=N)(=O)CC3)C(F)(F)F)cc2)c2cnc3cc(Cl)nn3c21 (stereo partly drawn) [CPD0072813] | – |
| 55 | 37 | CO[C@@H](C)c1c(Nc2ccc(C(N(C)C(=O)C3CCS(=O)(=O)CC3)C(F)(F)F)cc2)cnn2cc(Cl)nc12 (stereo partly drawn) [CPD0072849] | – |
| 114 | 43 | CO[C@H](C)c1c(Nc2ccc([C@H](N(C)C(=O)C3CCS(=O)(=O)CC3)C(F)(F)F)cc2)cnn2cc(Cl)nc12 [CPD0072850] | – |
| 642 | 368 | COc1cc([C@H](N(C)C(=O)C2CCS(=O)(=O)CC2)C(F)(F)F)ccc1N1CCCc2c1cnc1cc(Cl)nn21 [CPD0073040, N-[(1S)-1-(4-{4-chloro-2,3,7,10-tetraazatricyclo[7.4.0.0^2,6]trideca-1(9),3,5,7-tetraen-10-yl}-3-methoxyphenyl)-2,2,2-trifluoroethyl]-N-methyl-1,1-dioxo-1λ^6-thiane-4-carboxamide] | – |
| 5780 | 432 | CN(C(=O)C1CCS(=O)(=O)CC1)[C@@H](c1ccc(N2CCCc3c2cnc2cc(Cl)nn32)cc1)C(F)F [CPD0073041, N-[(1S)-1-(4-{4-chloro-2,3,7,10-tetraazatricyclo[7.4.0.0^2,6]trideca-1(9),3,5,7-tetraen-10-yl}phenyl)-2,2-difluoroethyl]-N-methyl-1,1-dioxo-1λ^6-thiane-4-carboxamide] | – |
